# Laboratory results: patent US10676504B2 (Colorado State University Research Foundation, priority 2015, dated 2020)
# Where two headings read alike, the source gives them in different places.
# Legend:
# [1] = system: 10326 NUT midline carcinoma cell line; experiment: 10326 cell viability (ATPLite); format: cell-based; conditions: Table P2; 48 hours incubation
# Method: (§1) Addition of compound was performed with a JANUS Workstation (PerkinElmer Life and Analytical Sciences) using a 384-well pinhead tool that is calibrated to deliver 100 nL drug/well. After 48 hours of incubation with compound, cells were analyzed for cell viability using the ATPLite (Perkin Elmer) luminescent assay kit per the manufacturer's instructions. […] Replicate measurements were analyzed with respect to dose and estimates of IC50 were calculated by logistic regression (GraphPad Prism).
# [2] = system: 797 NUT midline carcinoma cell line; experiment: 797 cell viability (ATPLite); format: cell-based; conditions: Table P2; 48 hours incubation
# Method: as §1
# HDAC3 = target: T1, HDAC3 (Homo sapiens, UniProt O15379); experiment: HDAC biochemical assay of P5-P12 (Table P1); conditions: Table P1
# T1 construct: The recombinant, full-length HDAC protein (BPS Biosciences) was incubated; purchased BPS Biosciences
# T1 sequence (O15379 whole entry): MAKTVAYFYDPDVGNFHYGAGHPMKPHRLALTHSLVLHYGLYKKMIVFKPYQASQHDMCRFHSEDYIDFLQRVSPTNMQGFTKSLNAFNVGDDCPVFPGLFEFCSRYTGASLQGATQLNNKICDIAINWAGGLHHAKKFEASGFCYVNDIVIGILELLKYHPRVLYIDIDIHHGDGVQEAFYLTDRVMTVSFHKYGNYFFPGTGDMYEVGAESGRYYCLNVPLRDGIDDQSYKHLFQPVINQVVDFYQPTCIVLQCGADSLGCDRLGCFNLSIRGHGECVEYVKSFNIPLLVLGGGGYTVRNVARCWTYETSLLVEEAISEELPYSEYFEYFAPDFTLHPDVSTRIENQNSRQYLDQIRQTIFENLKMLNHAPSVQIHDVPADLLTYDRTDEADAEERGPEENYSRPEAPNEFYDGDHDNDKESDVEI
# T1 sequence (Q9Y618 395-489 partner limits assumed): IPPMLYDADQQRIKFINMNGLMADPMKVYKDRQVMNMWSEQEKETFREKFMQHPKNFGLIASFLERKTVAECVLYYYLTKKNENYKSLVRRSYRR
# HDACs 1-3 = experiment: HDAC biochemical assay of P5-P12, summary statements
# HDAC8 = target: T2, HDAC8 (Homo sapiens, UniProt Q9BY41); experiment: HDAC biochemical assay of P5-P12 (Table P1); design: The recombinant, full-length HDAC protein (BPS Biosciences) was incubated; purchased BPS Biosciences; conditions: Table P1
# T2 sequence (Q9BY41 1-377): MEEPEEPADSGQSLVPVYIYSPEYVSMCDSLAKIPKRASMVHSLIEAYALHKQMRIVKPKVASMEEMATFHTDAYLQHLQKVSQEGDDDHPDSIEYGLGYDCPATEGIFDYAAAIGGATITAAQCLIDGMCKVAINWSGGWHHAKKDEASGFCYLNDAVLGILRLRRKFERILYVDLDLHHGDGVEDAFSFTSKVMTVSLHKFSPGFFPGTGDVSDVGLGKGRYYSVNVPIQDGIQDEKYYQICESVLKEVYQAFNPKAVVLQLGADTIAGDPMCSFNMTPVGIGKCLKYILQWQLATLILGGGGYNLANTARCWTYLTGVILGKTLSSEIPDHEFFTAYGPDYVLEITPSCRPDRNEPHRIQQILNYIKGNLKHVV
# HDAC6 = target: T3, HDAC6 (Homo sapiens, UniProt Q9UBN7); experiment: HDAC biochemical assay of P5-P12 (Table P1); design: The recombinant, full-length HDAC protein (BPS Biosciences) was incubated; purchased BPS Biosciences; conditions: 200 μM TCEP
# T3 sequence (Q9UBN7 1-1215): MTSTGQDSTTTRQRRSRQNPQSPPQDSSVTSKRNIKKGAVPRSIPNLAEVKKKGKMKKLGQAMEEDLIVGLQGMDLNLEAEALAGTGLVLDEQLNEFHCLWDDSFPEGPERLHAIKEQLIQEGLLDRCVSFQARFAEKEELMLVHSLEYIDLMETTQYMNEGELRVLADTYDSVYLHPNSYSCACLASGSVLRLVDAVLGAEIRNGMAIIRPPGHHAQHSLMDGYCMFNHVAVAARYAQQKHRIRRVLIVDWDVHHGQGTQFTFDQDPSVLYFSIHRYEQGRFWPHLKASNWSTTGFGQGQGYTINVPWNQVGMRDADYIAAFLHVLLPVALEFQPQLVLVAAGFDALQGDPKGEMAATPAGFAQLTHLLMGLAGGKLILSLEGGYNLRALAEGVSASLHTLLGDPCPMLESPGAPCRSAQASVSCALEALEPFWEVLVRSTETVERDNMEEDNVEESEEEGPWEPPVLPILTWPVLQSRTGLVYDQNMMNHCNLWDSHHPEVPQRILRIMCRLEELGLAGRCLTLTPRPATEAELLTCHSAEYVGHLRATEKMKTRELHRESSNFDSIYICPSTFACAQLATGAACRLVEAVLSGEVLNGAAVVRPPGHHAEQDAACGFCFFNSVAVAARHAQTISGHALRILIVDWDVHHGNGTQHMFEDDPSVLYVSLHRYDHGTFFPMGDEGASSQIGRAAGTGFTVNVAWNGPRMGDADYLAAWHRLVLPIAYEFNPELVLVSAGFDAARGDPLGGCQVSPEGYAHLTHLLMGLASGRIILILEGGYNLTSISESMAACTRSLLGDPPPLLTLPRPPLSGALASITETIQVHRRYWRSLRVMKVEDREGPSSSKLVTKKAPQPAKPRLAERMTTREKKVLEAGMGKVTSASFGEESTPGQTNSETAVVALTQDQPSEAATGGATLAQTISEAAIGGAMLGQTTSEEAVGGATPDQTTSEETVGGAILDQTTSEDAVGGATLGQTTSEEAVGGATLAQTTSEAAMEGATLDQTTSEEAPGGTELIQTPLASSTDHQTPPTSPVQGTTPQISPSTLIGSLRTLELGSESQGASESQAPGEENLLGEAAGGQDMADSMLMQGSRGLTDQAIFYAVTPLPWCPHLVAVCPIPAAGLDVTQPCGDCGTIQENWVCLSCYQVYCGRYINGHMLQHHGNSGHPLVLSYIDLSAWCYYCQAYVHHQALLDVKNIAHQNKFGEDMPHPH
# human HDACs = experiment: HDAC biochemical assay (Example 16), summary statements over isoforms; conditions: all isoforms tested
# Method: The inhibitory effect of compounds on deacetylase isoenzyme function was determined in vitro using an optimized homogenous assay performed in 384-well plate format. […] Data are analyzed on a plate-by-plate basis for the linear range of fluorescence over time. Data from the plate capture corresponding to the mid-linear range is imported into analytical software and annotated with well identity and compound concentration (Spotfire DecisionSite). Replicate experimental data from incubations with inhibitor are normalized to control, solvent-only wells and IC-50 is determined by logistic regression.
# Thus, small-molecule inhibitors were arrayed at twelve-point dose-response (3-fold increments) in 384-well library plates and transferred by robotic pin device to replicate assay plates containing assay buffer under reducing conditions (TCEP 200 μM). A liquid handling device then transferred a tripeptide substrate terminating in acetyl-lysine and amide conjugated to 4-methyl-7-aminocoumarin (AMC), recombinant human histone deacetylase (BPS Bioscience, San Diego, Calif.), and recombinant human trypsin (Sigma-Aldrich, St. Louis, Mo.). […] Kinetic (fluorescence per unit time) and end-point (total fluorescence) data were captured by a multilabel plate reader. Replicate data were analyzed by curve-fit using logistic regression (Spotfire Decision-Site). […]
# melanoma cell lines [3] = experiment: cells; conditions: read-out: Average Concentration (M), LC50, Melanoma
# colon cancer cell lines [4] = conditions: for Percent of Cell Lines Impacted (%), LC50, Colon: five-dose
# Excerpt: (§2) All compounds submitted for screening were initially tested at a single high dose (10^-5 M) against the fill NCI 60 cell panel. Only compounds which satisfied pre-determined threshold inhibition criteria in a minimum number of cell lines progressed to a second round of testing utilizing a more comprehensive 5-dose inhibition assay. The threshold inhibition criteria for progression to the 5-dose assays were selected to efficiently capture compounds with anti-proliferative activity based on historical DTP screening data.
# (§3) Concentrations for G150, IC50, TGI, and LC50 were calculated for all cell lines tested, and heat plots were prepared.
# colon cancer cell lines [5] = experiment: cells; conditions: read-out: Average Concentration (M), LC50, Colon
# Excerpt: as §2, §3
# CNS cancer cell lines [6] = experiment: cells; conditions: read-out: Average Concentration (M), LC50, CNS
# Excerpt: as §2, §3
# NCI-60 cancer cell lines [7] = conditions: five-dose; for Percent of Cell Lines Impacted (%), GI50: 50% Growth Inhibition; for Percent of Cell Lines Impacted (%), LC50: 50% Lethal Concentration reached; for Percent of Cell Lines Impacted (%), TGI / Total Impacted Cell Lines (n), TGI: Total Growth Inhibition; for Average Concentration (M), TGI: average over impacted cell lines
# Excerpt: as §2, §3
# melanoma cell lines [8] = conditions: for Percent of Cell Lines Impacted (%), LC50, Melanoma: five-dose
# NCI-60 cancer cell lines [9] = experiment: cells
# Excerpt: as §2, §3
# CNS cancer cell lines [10] = conditions: for Percent of Cell Lines Impacted (%), LC50, CNS: five-dose
# Excerpt: as §2, §3
# renal cancer cell lines = conditions: for Percent of Cell Lines Impacted (%), LC50, Renal: five-dose
# Excerpt: as §2, §3
# [11] = the molecule shown is the open-chain precursor, amide bond, 16-membered ring, 3 steps
# [12] = system: ovarian cancer cell lines
# Excerpt: as §2, §3
# HDAC1 = HDAC1 (Homo sapiens, UniProt Q13547); experiment: HDAC biochemical assay of P5-P12 (Table P1); design: The recombinant, full-length HDAC protein (BPS Biosciences) was incubated; purchased BPS Biosciences; conditions: Table P1
# Chain of HDAC1 (Q13547 whole entry): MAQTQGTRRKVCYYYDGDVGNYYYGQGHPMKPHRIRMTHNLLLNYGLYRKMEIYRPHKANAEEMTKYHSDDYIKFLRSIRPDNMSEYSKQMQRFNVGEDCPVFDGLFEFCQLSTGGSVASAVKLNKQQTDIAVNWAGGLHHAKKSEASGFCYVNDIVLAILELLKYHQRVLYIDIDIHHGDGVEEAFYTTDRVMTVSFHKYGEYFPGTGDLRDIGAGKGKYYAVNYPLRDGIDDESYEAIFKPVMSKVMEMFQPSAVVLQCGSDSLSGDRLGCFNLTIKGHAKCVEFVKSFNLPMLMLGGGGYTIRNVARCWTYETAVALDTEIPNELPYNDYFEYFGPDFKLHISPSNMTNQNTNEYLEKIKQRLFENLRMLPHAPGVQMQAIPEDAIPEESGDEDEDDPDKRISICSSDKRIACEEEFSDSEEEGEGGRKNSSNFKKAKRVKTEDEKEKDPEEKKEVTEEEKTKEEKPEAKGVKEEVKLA
# HDAC2 = HDAC2 (Homo sapiens, UniProt Q92769); experiment: HDAC biochemical assay of P5-P12 (Table P1); design: The recombinant, full-length HDAC protein (BPS Biosciences) was incubated; purchased BPS Biosciences; conditions: Table P1
# Chain of HDAC2 (Q92769 whole entry): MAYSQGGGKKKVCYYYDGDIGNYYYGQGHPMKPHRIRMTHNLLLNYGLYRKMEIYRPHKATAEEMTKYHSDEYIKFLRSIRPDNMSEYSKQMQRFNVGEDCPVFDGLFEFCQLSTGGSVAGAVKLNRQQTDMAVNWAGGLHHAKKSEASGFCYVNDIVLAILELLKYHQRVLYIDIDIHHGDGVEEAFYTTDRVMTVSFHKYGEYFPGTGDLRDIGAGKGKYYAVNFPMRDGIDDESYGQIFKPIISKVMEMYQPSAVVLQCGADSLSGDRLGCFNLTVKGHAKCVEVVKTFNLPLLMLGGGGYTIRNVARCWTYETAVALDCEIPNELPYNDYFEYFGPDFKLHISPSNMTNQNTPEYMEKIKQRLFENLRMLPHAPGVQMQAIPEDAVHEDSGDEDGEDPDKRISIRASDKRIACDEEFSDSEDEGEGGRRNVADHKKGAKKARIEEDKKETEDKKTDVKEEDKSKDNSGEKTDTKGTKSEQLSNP
# [13] = read-out: Average Concentration (M), GI50
smiles,measurement,setting,value
"CC(C)[C@@H]1NC(=O)[C@]2(C)CSC(=N2)c2cccc(n2)CNC(=O)C[C@@H](/C=C/CCS)OC1=O [Compound P6, Depsipeptide Pyridyl “IN” Thiol]",IC50,[1],290 nM
same,IC50,[2],220 nM
same,IC50,HDAC3,3.07 nM
same,IC50 range in words for HDACs 1-3,HDACs 1-3,single digit nM range
same,IC50,HDAC8,341 nM
same,IC50,HDAC6,48.5 nM
CC(C)[C@@H]1NC(=O)[C@]2(C)CSC(=N2)c2csc(n2)CNC(=O)C[C@@H](/C=C/CCS)NC1=O [Largazole peptide isostere thiol],IC50,[1],11900 nM
same,IC50,[2],1740 nM
same,IC50,HDAC8,255 nM
"CC(C)[C@H]1NC(=O)[C@@]2(C)CSC(=N2)c2csc(n2)CNC(=O)C[C@H](/C=C/CCS)OC1=O [Enantiomer (2), (−)-Largazole Thiol]",decrease in potency versus the natural product,human HDACs,three orders of magnitude
CCCCCCCC(=O)SCC/C=C/[C@@H]1CC(=O)NCc2cc(ccn2)C2=N[C@@](C)(CS2)C(=O)N[C@@H](C(C)C)C(=O)O1 [compound of formula A],CC50,melanoma cell lines [3],2.02e-07 M
same,"Total Impacted Cell Lines (n), LC50, Colon",colon cancer cell lines [4],3
same,"Percent of Cell Lines Impacted (%), LC50, Colon",colon cancer cell lines [4],43%
same,CC50,colon cancer cell lines [5],1.48e-06 M
same,CC50,CNS cancer cell lines [6],1.38e-05 M
same,"Percent of Cell Lines Impacted (%), GI50",NCI-60 cancer cell lines [7],100%
same,"Percent of Cell Lines Impacted (%), LC50",NCI-60 cancer cell lines [7],16%
same,"Percent of Cell Lines Impacted (%), TGI",NCI-60 cancer cell lines [7],56%
same,"Total Impacted Cell Lines (n), TGI",NCI-60 cancer cell lines [7],32
same,"Average Concentration (M), TGI",NCI-60 cancer cell lines [7],8.49e-07 M
same,"Total Impacted Cell Lines (n), LC50, Melanoma",melanoma cell lines [8],3
same,"Percent of Cell Lines Impacted (%), LC50, Melanoma",melanoma cell lines [8],38%
same,GI50,NCI-60 cancer cell lines [9]; [13],3.29e-08 M
same,GI50,"NCI-60 cancer cell lines [9]; read-out: GI50 concentrations (M), order of magnitude",1e-08 M
same,"Total Impacted Cell Lines (n), LC50, CNS",CNS cancer cell lines [10],1
same,"Percent of Cell Lines Impacted (%), LC50, CNS",CNS cancer cell lines [10],20%
same,"Total Impacted Cell Lines (n), LC50, Renal",renal cancer cell lines,2
same,"Percent of Cell Lines Impacted (%), LC50, Renal",renal cancer cell lines,25%
COC(=O)C[C@@H](/C=C/CCSC(c1ccccc1)(c1ccccc1)c1ccccc1)NC(=O)[C@@H](NC(=O)[C@]1(C)CSC(c2ccnc(CNC(=O)OC(C)(C)C)c2)=N1)C(C)C [Trityl Protected Peptide Isostere Pyridyl “OUT” Macrocycle],"ring closure, isolated yield","[11]; HATU/HOBt/DIEA, MeCN, 0.97 mM, […]",32%
CCCCCCCC(=O)SCC/C=C/[C@@H]1CC(=O)NCc2nc(cs2)C2=N[C@@](C)(CS2)C(=O)N[C@@H](C(C)C)C(=O)N1 [compound of formula aa],CC50,melanoma cell lines [3],6.52e-06 M
same,"Total Impacted Cell Lines (n), LC50, Colon",colon cancer cell lines [4],3
same,"Percent of Cell Lines Impacted (%), LC50, Colon",colon cancer cell lines [4],43%
same,CC50,colon cancer cell lines [5],9.45e-06 M
same,CC50,CNS cancer cell lines [6],7.17e-06 M
same,"Percent of Cell Lines Impacted (%), GI50",NCI-60 cancer cell lines [7],100%
same,"Percent of Cell Lines Impacted (%), LC50",NCI-60 cancer cell lines [7],17%
same,"Percent of Cell Lines Impacted (%), TGI",NCI-60 cancer cell lines [7],64%
same,"Total Impacted Cell Lines (n), TGI",NCI-60 cancer cell lines [7],37
same,"Average Concentration (M), TGI",NCI-60 cancer cell lines [7],1.31e-05 M
same,"Total Impacted Cell Lines (n), LC50, Melanoma",melanoma cell lines [8],2
same,"Percent of Cell Lines Impacted (%), LC50, Melanoma",melanoma cell lines [8],25%
same,GI50,NCI-60 cancer cell lines [9]; [13],6.56e-07 M
same,"Total Impacted Cell Lines (n), LC50, Ovarian",[12],1
same,"Percent of Cell Lines Impacted (%), LC50, Ovarian",[12]; five-dose,14%
same,"Total Impacted Cell Lines (n), LC50, CNS",CNS cancer cell lines [10],2
same,"Percent of Cell Lines Impacted (%), LC50, CNS",CNS cancer cell lines [10],33%
same,"Total Impacted Cell Lines (n), LC50, Renal",renal cancer cell lines,2
same,"Percent of Cell Lines Impacted (%), LC50, Renal",renal cancer cell lines,25%
COC(=O)C[C@@H](/C=C/CCSC(c1ccccc1)(c1ccccc1)c1ccccc1)NC(=O)[C@@H](NC(=O)[C@]1(C)CSC(c2cccc(CNC(=O)OC(C)(C)C)n2)=N1)C(C)C [Trityl Protected Peptide Isostere Pyridyl “IN” Macrocycle],"ring closure, isolated yield",[11],33%
"CC(C)[C@@H]1NC(=O)[C@]2(C)CSC(=N2)c2ccnc(c2)CNC(=O)C[C@@H](/C=C/CCS)OC1=O [Compound P8, Depsipeptide Pyridyl “OUT” Thiol]",IC50,[1],120 nM
same,IC50,HDAC1,2.2 nM
same,IC50,[2],90 nM
same,IC50,HDAC3,2.31 nM
same,IC50 range in words for HDACs 1-3,HDACs 1-3,single digit nM range
same,IC50,HDAC2,4.42 nM
same,IC50,HDAC8,102 nM
same,IC50,HDAC6,35.2 nM
"CC(C)[C@@H]1NC(=O)[C@]2(C)CSC(=N2)c2ccnc(c2)CNC(=O)C[C@@H](/C=C/CCS)NC1=O [Compound P12, Peptide Isostere Pyridyl “OUT” Thiol]",IC50,HDAC1,13.2 nM
same,IC50,HDAC3,14.6 nM
same,IC50 range in words for HDACs 1-3,HDACs 1-3,double-digit nM range
same,IC50,HDAC2,20.8 nM
same,IC50,HDAC8,1490 nM
same,IC50,HDAC6,2850 nM
